Measurements as given in US6284774A, “4-Benzyl piperidine alkylsulfoxide heterocycles and their use as subtype-selective NMDA receptor antagonists” (priority 2000, dated 2001).

Tests used:
NR1A /2B = target: T1, NR1A /2B (Rattus norvegicus, UniProt P35439+Q00960); assay: Electrophysiological assay at NMDA receptor subunits NR1A/2B expressed in Xenopus oocytes; assay type: cell-based; details: rat clones in Xenopus oocytes, currents activated by glutamate (100 μM) and glycine (1-100 μM)
T1 construct: expressed in transfected cells; host or cells: Xenopus laevis oocytes (cRNA micro-injection)
Excerpt: (§1) Many of the properties of native NMDA receptors are seen in recombinant homomeric NR1 receptors expressed in Xenopus oocytes. These properties are altered by the NR2 subunits. Recombinant NMDA receptors expressed in Xenopus oocytes have been studied by voltage-clamp recording, as has developmental and regional expression of the mRNAs encoding NMDA receptor subunits. Electrophysiological assays were utilized to characterize the actions of compounds at NMDA receptors expressed in Xenopus oocytes.
(§2) Electrophysiological Assays at NMDA receptor subunits.
(§3) cDNA clones encoding the NR1A, NR2A, NR2B, and NR2C rat NMDA receptor subtypes were used. […] The clones were transformed into appropriate host bacteria and plasmid preparations were made with conventional DNA purification techniques. A sample of each clone was linearized by restriction enzyme digestion and cRNA was synthesized with T3 RNA polymerase. The cRNA was diluted to 400 ng/μl and stored in 1 μl aliquots at -80° C. until injection.
(§4) The Xenopus Oocyte Expression System
(§5) Follicle-enclosed oocytes were micro-injected with 1:1 mixtures of NR1A:NR2A, 2B or 2C; infecting 1-10 ng of RNA encoding each receptor subunit. NR1A encoding RNA was injected alone at ~20 ng. Oocytes were stored in Barth's medium containing (in mM):NaCl, 88; KCl, 1; CaCl2, 0.41; Ca(NO3)2, 0.33; MgSo4, 0.82 NaHCO3, 2.4; HEPES 5, pH 7.4, with 0.11 mg/ml gentamicin sulphate. While oocytes were still surrounded by enveloping ovarian tissues the Barth's medium was supplemented with 0.1% bovine serum.
(§6) Electrical recordings were made using a conventional two-electrode voltage clamp (Dagan TEV-200) over periods ranging between 3-21 days following injection. […] Drugs were applied by bath perfusion. Using oocytes expressing different subunit combinations of NMDA receptor, NMDA currents were activated by co-application of glutamate (100 μM) and glycine (1-100 μM). Inhibitory potency of the novel antagonists was assessed on responses elicited by fixed concentrations of glutamate and glycine, by measuring reductions in current induced by progressively increasing concentrations of antagonist. Concentration-inhibition curves were fit with equation 1.
(§7) in which Icontrol is the current evoked by agonists alone, pIC50 =-log IC50, IC50 is the concentration of antagonist that produces half maximal inhibition, and n is the slope factor. […] For incomplete curves analysis by fitting was unreliable and IC50 values were calculated by simple regression over linear portions of the curves (Origin: Microcal Software).

NRIA /2A = target: T2, NRIA /2A (Rattus norvegicus, UniProt P35439+Q00959); assay: Electrophysiological assay at NMDA receptor subunits NR1A/2A expressed in Xenopus oocytes; assay type: cell-based; details: rat clones in Xenopus oocytes, currents activated by glutamate (100 μM) and glycine (1-100 μM)
T2 construct: expressed in transfected cells; host or cells: Xenopus laevis oocytes (cRNA micro-injection)
Excerpt: as §1, §2, §3, §4, §5, §6, §7

[1] = test system: 6-Hydroxydopamine-lesioned rats; assay: 6-OHDA Rat Assay: potentiation of contraversive rotation induced by L-DOPA methyl ester; assay type: in vivo, Sprague-Dawley rats; details: po; L-DOPA methyl ester 10 mg/kg SC; total contraversive rotations over 6 hour vs L-DOPA only
Method: Adult male Sprague-Dawley rats were anesthetized with chloral hydrate and unilateral lesions of the nigrostriatal dopamine system were accomplished by infusion of 8 μg of 6-hydroxydopamine HBr (6-OHDA) into the right medial forebrain bundle. […] A minimum of 3 weeks after surgery, the rotational behavior induced by apomorphine HCL 50 μg/kg subcutaneously (SC) was assessed. […] Rotational behavior was measured using an automatic rotometer system (Rotorat Rotational Activity System, MED Associates, Georgia, Vt.). Anti-parkinsonian activity was assessed as the ability of the compound to potentiate the contraversive rotation induced by L-DOPA methyl ester, 10 mg/kg SC, over a 6 hour period. Experiments were conducted using a crossover paradigm where each rat received either a vehicle plus L-DOPA, or the test compound plus L-DOPA, in randomized order. Rats were tested at 7 day intervals. In experiments in which the compound was tested orally, rats were food deprived for 16 hours. Statistical analysis between treatment groups were performed using a paired t-test.

NR1A /2C = target: T3, NR1A /2C (Rattus norvegicus, UniProt P35439+Q00961); assay: Electrophysiological assay at NMDA receptor subunits NR1A/2C expressed in Xenopus oocytes; assay type: cell-based; details: rat clones in Xenopus oocytes, currents activated by glutamate (100 μM) and glycine (1-100 μM)
T3 construct: expressed in transfected cells; host or cells: Xenopus laevis oocytes (cRNA micro-injection)
Excerpt: as §1, §2, §3, §4, §5, §6, §7

[2] = at plasma levels leading to NMDA receptor antagonism; cited from earlier work
[3] = test system: d-amphetamine-induced stimulation; details: injected into rat nucleus accumbens vs striatum; cited from earlier work

T2 sequence (Q00959 23-1464, other chains not shown): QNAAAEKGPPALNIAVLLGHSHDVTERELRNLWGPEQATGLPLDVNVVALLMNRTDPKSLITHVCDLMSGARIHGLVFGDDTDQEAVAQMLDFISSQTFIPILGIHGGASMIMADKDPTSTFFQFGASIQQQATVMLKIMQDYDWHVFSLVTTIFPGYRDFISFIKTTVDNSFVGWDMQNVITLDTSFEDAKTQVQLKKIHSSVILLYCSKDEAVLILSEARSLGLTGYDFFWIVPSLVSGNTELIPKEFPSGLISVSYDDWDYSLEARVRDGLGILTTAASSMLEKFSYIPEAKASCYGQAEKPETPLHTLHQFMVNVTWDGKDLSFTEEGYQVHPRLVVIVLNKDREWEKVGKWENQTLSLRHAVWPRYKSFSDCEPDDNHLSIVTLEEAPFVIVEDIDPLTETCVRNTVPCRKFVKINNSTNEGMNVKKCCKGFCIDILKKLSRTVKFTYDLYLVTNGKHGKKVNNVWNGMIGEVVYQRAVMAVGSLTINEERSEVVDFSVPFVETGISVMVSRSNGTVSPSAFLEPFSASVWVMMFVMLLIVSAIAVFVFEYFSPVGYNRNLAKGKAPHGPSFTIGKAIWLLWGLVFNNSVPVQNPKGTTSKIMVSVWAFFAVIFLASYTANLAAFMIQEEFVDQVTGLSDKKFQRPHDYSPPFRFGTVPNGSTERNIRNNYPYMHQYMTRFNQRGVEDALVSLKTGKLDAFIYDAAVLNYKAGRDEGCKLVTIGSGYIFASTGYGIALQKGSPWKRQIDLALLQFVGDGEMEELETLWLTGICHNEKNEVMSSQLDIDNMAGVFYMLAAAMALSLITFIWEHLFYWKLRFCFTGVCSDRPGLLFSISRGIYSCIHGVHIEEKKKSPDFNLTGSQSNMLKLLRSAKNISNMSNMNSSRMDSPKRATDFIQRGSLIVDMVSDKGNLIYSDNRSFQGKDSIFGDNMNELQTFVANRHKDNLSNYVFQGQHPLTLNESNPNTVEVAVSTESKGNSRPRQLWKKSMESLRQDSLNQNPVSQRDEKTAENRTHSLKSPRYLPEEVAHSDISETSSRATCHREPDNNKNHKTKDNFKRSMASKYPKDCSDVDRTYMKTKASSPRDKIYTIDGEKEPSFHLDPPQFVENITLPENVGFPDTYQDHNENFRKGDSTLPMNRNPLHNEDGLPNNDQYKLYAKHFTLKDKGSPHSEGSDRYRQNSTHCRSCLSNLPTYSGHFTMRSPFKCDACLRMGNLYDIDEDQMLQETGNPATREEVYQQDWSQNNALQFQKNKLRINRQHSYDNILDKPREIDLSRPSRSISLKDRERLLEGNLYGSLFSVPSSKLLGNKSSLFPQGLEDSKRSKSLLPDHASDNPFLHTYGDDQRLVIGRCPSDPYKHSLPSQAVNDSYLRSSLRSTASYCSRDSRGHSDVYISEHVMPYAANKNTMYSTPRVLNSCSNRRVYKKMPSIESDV
T1 sequence (Q00960 27-1482, other chains not shown): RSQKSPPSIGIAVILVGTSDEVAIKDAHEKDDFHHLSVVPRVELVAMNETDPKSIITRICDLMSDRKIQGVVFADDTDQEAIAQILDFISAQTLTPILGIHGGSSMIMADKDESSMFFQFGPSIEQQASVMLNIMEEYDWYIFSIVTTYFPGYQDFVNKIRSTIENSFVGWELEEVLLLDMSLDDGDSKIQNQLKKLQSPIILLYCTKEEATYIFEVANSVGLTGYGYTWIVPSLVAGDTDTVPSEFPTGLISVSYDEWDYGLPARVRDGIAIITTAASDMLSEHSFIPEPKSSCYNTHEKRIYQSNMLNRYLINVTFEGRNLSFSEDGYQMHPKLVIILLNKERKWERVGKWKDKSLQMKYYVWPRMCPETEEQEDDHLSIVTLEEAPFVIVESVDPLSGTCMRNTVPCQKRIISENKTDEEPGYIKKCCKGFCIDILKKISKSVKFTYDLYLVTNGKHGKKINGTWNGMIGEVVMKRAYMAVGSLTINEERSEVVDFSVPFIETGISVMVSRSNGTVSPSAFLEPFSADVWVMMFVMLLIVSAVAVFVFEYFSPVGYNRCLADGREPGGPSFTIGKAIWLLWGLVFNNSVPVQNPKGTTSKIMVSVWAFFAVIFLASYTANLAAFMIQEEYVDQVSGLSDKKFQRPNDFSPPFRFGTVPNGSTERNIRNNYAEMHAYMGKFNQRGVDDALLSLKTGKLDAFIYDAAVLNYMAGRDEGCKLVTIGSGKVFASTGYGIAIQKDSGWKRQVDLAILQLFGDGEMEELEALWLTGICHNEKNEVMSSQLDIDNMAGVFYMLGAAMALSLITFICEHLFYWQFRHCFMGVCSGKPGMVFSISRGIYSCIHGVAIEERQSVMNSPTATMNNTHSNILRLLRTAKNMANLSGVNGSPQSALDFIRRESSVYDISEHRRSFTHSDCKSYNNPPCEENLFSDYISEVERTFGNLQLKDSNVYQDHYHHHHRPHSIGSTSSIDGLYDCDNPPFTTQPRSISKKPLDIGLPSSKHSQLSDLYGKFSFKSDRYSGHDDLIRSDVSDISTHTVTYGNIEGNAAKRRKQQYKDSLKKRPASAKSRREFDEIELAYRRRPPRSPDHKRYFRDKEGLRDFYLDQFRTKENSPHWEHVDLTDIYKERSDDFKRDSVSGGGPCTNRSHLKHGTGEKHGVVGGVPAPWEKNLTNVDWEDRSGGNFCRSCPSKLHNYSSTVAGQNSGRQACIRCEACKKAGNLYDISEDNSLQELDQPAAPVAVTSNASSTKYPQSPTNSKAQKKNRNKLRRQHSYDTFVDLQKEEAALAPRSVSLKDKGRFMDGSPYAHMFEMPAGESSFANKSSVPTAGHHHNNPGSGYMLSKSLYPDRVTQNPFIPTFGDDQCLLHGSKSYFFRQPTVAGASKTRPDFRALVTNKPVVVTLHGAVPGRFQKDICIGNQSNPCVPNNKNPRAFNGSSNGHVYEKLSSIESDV
T3 sequence (Q00961 20-1237, other chains not shown): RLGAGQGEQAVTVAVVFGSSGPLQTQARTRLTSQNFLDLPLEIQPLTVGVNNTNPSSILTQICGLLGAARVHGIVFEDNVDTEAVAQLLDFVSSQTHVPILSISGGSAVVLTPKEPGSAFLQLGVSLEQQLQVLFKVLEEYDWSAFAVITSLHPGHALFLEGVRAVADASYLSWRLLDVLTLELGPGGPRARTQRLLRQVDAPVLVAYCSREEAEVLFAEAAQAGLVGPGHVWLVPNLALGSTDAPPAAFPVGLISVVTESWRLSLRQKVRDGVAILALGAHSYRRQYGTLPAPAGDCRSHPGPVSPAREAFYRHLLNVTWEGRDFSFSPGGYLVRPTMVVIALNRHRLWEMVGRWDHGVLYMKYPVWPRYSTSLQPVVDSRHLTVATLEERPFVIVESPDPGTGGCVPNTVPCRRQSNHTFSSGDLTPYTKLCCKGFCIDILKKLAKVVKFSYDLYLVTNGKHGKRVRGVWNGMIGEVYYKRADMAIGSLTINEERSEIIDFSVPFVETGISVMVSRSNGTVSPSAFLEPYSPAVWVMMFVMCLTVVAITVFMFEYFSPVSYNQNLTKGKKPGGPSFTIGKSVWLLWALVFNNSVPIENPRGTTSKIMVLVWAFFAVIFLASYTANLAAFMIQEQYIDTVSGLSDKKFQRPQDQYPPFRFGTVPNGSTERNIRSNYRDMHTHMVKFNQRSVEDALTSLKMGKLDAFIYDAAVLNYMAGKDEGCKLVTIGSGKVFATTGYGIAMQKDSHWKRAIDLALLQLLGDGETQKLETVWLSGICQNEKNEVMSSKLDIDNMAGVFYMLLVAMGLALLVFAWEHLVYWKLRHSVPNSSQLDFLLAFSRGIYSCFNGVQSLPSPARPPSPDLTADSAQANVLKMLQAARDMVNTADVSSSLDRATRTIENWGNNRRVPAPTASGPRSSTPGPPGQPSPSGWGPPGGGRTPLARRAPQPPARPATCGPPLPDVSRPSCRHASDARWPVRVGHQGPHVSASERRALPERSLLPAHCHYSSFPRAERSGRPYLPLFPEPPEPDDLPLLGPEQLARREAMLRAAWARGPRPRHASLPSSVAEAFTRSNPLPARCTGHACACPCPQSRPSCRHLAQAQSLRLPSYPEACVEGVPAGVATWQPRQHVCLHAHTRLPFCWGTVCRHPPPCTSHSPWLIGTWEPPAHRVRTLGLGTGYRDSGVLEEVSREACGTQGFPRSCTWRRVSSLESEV

Structure (SMILES) | IC50 (NR1A /2B) | IC50 (NRIA /2A) | IC50 (NR1A /2C) | 6-OHDA rat MED (minimum effective dose) [1] | antiparkinsonian-like activity [2] | antagonism of d-amphetamine-induced stimulation [3]
O=c1[nH]c2ccc([S+]([O-])CCN3CCC(Cc4ccc(F)cc4)CC3)cc2o1 (single isomer, unassigned; (-)) [Example 20, (-)-6-{2-[4,(4-fluorobenzyl)piperidin-1-yl]ethanesulfinyl}-3H-benzooxazol-2-one] | 0.03 µM | – | – | 30 mg/kg | – | –
O=c1[nH]c2cc(Cl)c([S+]([O-])CCN3CCC(Cc4ccccc4)CC3)cc2o1 (stereo not shown) [Example 17, 6-[2-(4-benzylpiperidin-1-yl)ethanesulfinyl]-5-chloro-3H-benzooxazol-2-one] | 0.16 µM | 40 µM | > 300 µM | > 10 mg/kg | – | –
O=C(c1ccccc1)C1CCN(CC[S+]([O-])c2ccc3[nH]c(=O)oc3c2)CC1 (stereo not shown) [Example 10, 6-[2-(4-benzoylpiperidin-1-yl)-ethanesulfinyl]-3H-benzooxazol-2-one] | 0.34 µM | 70 µM | 140 µM | – | – | –
O=c1[nH]c2ccc([S+]([O-])CCN3CCC(O)(Cc4ccc(F)cc4)CC3)cc2o1 (stereo not shown) [Example 9, 6-{2-[4-(4-fluorobenzyl)-4-hydroxy-piperidin-1-yl]-ethanesulfinyl}-3H-benzooxazol-2-one] | 0.9 µM | 50 µM | 200 µM | > 10 mg/kg | – | –
CC12CC3CC(C)(C1)CC(N)(C3)C2 [memantine] | – | – | – | – | showed antiparkinsonian-like activity in animals | –
CC(=O)Nc1ccc(CC2CCN(CC[S+]([O-])c3ccc4[nH]c(=O)oc4c3)CC2)cc1 (stereo not shown) [Example 16, N-(4-{1-[2-(2-oxo-2,3-dihydrobenzooxazol-6-sulfinyl)ethyl]piperidin-4-ylmethyl}phenyl)acetamide] | 10 µM | > 300 µM | > 300 µM | – | – | –
O=c1[nH]c2ccc([S+]([O-])CCN3CCC(Cc4ccc(F)cc4)CC3)cc2o1 (stereo not shown) [Example 1, 6-[2-[4-(4-Fluoro-benzyl)-piperidin-1-yl]-ethanesulfinyl]-3H-benzooxazol-2-one] | 0.03 µM | 105 µM | 190 µM | 1 mg/kg | – | –
O=c1[nH]c2ccc([S+]([O-])CCN3CCC(O)(Cc4ccccc4)CC3)cc2o1 (stereo not shown) [Example 8, 6-[2-(4-benzyl-4-hydroxypiperidin-1-yl)-ethanesulfinyl]-3H-benzooxazol-2-one] | 1.1 µM | 40 µM | 230 µM | – | – | –
N[C@@H]1CCN(O)C1=O [(+) HA-966] | – | – | – | – | – | selectively antagonize d-amphetamine-induced stimulation when injected into rat nucleus accumbens but not in striatum
O=C(O)c1cc(O)c2c(Cl)cc(Cl)cc2n1 [5,7-dichlorokynurenic acid] | – | – | – | – | – | selectively antagonize d-amphetamine-induced stimulation when injected into rat nucleus accumbens but not in striatum
NC12CC3CC(CC(C3)C1)C2 [amantadine] | – | – | – | – | showed antiparkinsonian-like activity in animals | –
O=c1[nH]c2ccc([S+]([O-])CCN3CCC(Cc4ccc(F)cc4)CC3)cc2o1 (single isomer, unassigned; (+)) [Example 19, (+)-6-{2-[4-(4-fluorobenzyl)piperidine-1-yl]ethanesulfinyl}-3H-benzooxazol-2-one] | 0.03 µM | – | – | 1 mg/kg | – | –

Continued by falling IC50 (NR1A /2B), values first:

IC50 (NR1A /2B) | IC50 (NRIA /2A) | IC50 (NR1A /2C) | Structure (SMILES) | 6-OHDA rat MED (minimum effective dose) [1] | antiparkinsonian-like activity [2] | antagonism of d-amphetamine-induced stimulation [3]
0.11 µM | 35 µM | > 300 µM | O=c1[nH]c2cc(Cl)c([S+]([O-])CCN3CCC(Cc4ccc(F)cc4)CC3)cc2o1 (stereo not shown) [Example 18, 5-Chloro-6-{2-[4-(4-fluorobenzyl)piperidin-1-yl]ethanesulfinyl}-3H-benzooxazol-2-one] | > 10 mg/kg | – | –
0.1 µM | 55 µM | 150 µM | COc1ccc(CC2CCN(CC[S+]([O-])c3ccc4[nH]c(=O)oc4c3)CC2)cc1 (stereo not shown) [Example 5, 6-{2-[4-(4-methoxybenzyl)-piperidin-1-yl]-ethanesulfinyl}-3H-benzooxazol-2-one] | > 10 mg/kg | – | –
0.1 µM | 70 µM | 80 µM | O=c1[nH]c2ccc([S+]([O-])CCN3CCC(Cc4ccc(Cl)c(Cl)c4)CC3)cc2o1 (stereo not shown) [Example 6, 6-{2-[4-(3,4-dichlorobenzyl)-piperidin-1-yl]-ethanesulfinyl}-3H-benzooxazol-2-one] | > 10 mg/kg | – | –
0.09 µM | 55 µM | 60 µM | O=c1[nH]c2ccc([S+]([O-])CCN3CCC(Cc4ccccc4F)CC3)cc2o1 (stereo not shown) [Example 7, 6-{2-[4-(2-fluorobenzyl)-piperidin-1-yl]-ethanesulfinyl}-3H-benzooxazol-2-one] | 10 mg/kg | – | –
0.05 µM | 40 µM | 140 µM | O=c1[nH]c2ccc([S+]([O-])CCN3CCC(Cc4cccc(F)c4F)CC3)cc2o1 (stereo not shown) [Example 11, 6-{2-[4-(2,3-difluorobenzyl)-piperidin-1-yl]-ethanesulfinyl}-3H-benzooxazol-2-one] | 10 mg/kg | – | –
0.04 µM | 35 µM | 150 µM | O=c1[nH]c2ccc([S+]([O-])CCN3CCC(Cc4ccc(C(F)(F)F)cc4)CC3)cc2o1 (stereo not shown) [Example 13] | 10 mg/kg | – | –
0.04 µM | 55 µM | 160 µM | O=c1[nH]c2ccc([S+]([O-])CCN3CCC(Cc4c(F)cccc4F)CC3)cc2o1 (stereo not shown) [Example 14, 6-{2-4[-(2,6-difluorobenzyl)-piperidin-1-yl]-ethanesulfinyl}-3H-benzooxazol-2-one] | > 10 mg/kg | – | –
0.04 µM | 90 µM | 150 µM | O=c1[nH]c2ccc([S+]([O-])CCN3CCC(Cc4ccc(Cl)cc4Cl)CC3)cc2o1 (stereo not shown) [Example 15, 6-{2-[4-(2,4-dichlorobenzyl)-piperidin-1-yl]-ethanesulfinyl}-3H-benzooxazol-2-one] | 10 mg/kg | – | –
0.03 µM | 100 µM | – | Cc1ccc(CC2CCN(CC[S+]([O-])c3ccc4[nH]c(=O)oc4c3)CC2)cc1 (stereo not shown) [Example 3, 6-{2-[4-(4-methyl-benzyl)-piperidin-1-yl]-ethanesulfinyl}-3H-benzooxazol-2-one] | 3 mg/kg | – | –
0.03 µM | > 300 µM | > 300 µM | O=c1[nH]c2ccc([S+]([O-])CCN3CCC(Cc4ccccc4)CC3)cc2o1 (stereo not shown) [Example 4, 6-[2-(4-Benzyl-piperidin-1-yl)-ethanesulfinyl]-3H-benzooxazol-2-one] | 3 mg/kg | – | –
0.02 µM | > 300 µM | 200 µM | O=c1[nH]c2ccc([S+]([O-])CCN3CCC(Cc4ccc(Cl)cc4)CC3)cc2o1 (stereo not shown) [Example 2, 6-{2-[4-(4-chloro-benzyl)-piperidin-1-yl]-ethanesulfinyl}-3H-benzooxazol-2-one] | 3 mg/kg | – | –
0.01 µM | 30 µM | 130 µM | O=c1[nH]c2ccc([S+]([O-])CCN3CCC(Cc4ccc(F)cc4F)CC3)cc2o1 (stereo not shown) [Example 12, 6-{2-[4-(2,4-difluorobenzyl)-piperidin-1-yl]-ethanesulfinyl}-3H-benzooxazol-2-one] | 10 mg/kg | – | –
